We go through eight compounds from ChEMBL document CHEMBL1138763 (J Med Chem, 2004).

The structures appear in SMILES notation. Bounds are passed on as bounds.

The target in experiment [1] is Prostaglandin G/H synthase 1 (Homo sapiens, UniProt P23219). The experiment can be described thus: In vitro inhibitory concentration against Prostaglandin G/H synthase 1 in human whole blood assay. The experiment is classed as tissue-based.
For experiment [2], the target named is T1, Prostaglandin G/H synthase 2 (Homo sapiens, UniProt P35354).
T1 sequence (P35354 whole entry): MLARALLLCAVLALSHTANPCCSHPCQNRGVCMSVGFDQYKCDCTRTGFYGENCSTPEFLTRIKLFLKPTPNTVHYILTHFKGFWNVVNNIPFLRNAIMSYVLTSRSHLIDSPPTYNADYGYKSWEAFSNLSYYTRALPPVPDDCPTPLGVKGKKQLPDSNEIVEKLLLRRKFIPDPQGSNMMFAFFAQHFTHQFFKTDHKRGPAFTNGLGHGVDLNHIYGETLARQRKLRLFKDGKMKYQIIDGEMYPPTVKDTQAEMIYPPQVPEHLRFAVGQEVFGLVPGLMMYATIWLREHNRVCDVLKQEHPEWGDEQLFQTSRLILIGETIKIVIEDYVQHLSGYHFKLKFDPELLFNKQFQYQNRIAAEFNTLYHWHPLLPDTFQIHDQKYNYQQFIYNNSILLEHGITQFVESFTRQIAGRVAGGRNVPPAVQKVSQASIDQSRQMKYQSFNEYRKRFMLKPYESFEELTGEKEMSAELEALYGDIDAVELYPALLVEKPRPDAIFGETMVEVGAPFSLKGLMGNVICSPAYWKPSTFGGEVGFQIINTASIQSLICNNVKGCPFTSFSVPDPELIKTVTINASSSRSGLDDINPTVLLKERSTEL
Type of experiment: tissue-based, Blood.
Description: In vitro inhibitory concentration against Prostaglandin G/H synthase 2 in human whole blood assay

Prostaglandin G/H synthase 1, sequence (P23219 whole entry): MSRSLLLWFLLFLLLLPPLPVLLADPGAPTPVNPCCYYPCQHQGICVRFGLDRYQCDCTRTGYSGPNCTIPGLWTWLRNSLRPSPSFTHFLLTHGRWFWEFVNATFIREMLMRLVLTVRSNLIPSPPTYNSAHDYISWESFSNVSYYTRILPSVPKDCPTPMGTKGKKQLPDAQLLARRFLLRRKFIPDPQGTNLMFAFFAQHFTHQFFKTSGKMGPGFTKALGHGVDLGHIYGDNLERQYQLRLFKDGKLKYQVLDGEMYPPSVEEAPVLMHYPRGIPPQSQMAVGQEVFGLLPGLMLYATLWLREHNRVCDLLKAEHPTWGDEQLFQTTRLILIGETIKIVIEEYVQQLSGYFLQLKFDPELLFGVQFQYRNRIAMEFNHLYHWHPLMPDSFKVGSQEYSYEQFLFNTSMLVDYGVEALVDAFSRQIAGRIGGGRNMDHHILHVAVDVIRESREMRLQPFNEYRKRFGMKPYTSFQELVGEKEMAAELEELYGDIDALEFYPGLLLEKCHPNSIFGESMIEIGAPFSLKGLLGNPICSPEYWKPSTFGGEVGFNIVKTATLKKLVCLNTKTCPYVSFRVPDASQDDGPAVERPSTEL

Consider `Cc1cc(C)c(S(N)(=O)=O)c(C)c1-c1noc(C)c1-c1ccccc1`, for which the 50% inhibitory concentration (IC50) in experiment [1] and in experiment [2] was more than 100 µM in each case.
With `Cc1onc(-c2ccc(Cl)o2)c1-c1ccc(S(N)(=O)=O)cc1`, the 50% inhibitory concentration (IC50) in experiment [1] and in experiment [2] was more than 100 µM in each case.
On to `COc1cc(OC)c(-c2noc(C)c2-c2ccccc2)c(OC)c1`, for which the IC50 in experiment [1] and in experiment [2] was more than 100 µM throughout.
Turning to `Cc1cc(C)c(-c2noc(C)c2-c2ccccc2)c(C)c1`, the half-maximal inhibitory concentration (IC50) in experiment [1] and in experiment [2] was more than 100 µM each time.
With `COc1cc(OC)c(-c2noc(C)c2-c2ccc(S(N)(=O)=O)cc2)c(OC)c1Cl`, the IC50 in experiment [1] and in experiment [2] was more than 100 µM in each case.
As for `COc1cc(OC)c(-c2noc(C)c2-c2ccccc2)c(OC)c1Cl`, the 50% inhibitory concentration (IC50) in experiment [1] and in experiment [2] was more than 100 µM each time.
`Cc1onc(-c2ccc(Cl)o2)c1-c1ccccc1`: the IC50 in experiment [2] is more than 100 µM.
As for `Cc1cc(C)c(S(N)(=O)=O)c(C)c1-c1noc(C)c1-c1ccc(S(N)(=O)=O)cc1`, the IC50 in experiment [1] and in experiment [2] was more than 100 µM in each case.
